Measurements: publication PMC11822212, “High-throughput screening identifies Aurora kinase B as a critical therapeutic target for Merkel cell carcinoma” (Nature Communications, 2025)
Values joined by “and” are separate entries in the source; they are usually repeats but may differ in a detail not shown here. Equal entries are not always repeated. Where two headings read alike, the source gives them in different places.

Experiments:
Experiment in all cases: qHTS cell viability (CellTiter-Glo, 72 h; primary and follow-up small molecule screen)
Format in all cases: cell-based, human
[1] = tested on: UISO cells (VN-MCC)
[2] = tested on: MKL-1 cells (VP-MCC)
[3] = tested on: MCC26 cells (VN-MCC)
[4] = tested on: WAGA cells (VP-MCC)
[5] = tested on: MCC13 cells (VN-MCC)
[6] = tested on: MKL-2 cells (VP-MCC)

Row | Structure (SMILES) | Area under the dose-response curve (AUC) UISO Replicate 1 [1] | Area under the dose-response curve (AUC) UISO Replicate 2 [1] | Area under the dose-response curve (AUC) UISO Replicate 3 [1] | Area under the dose-response curve (AUC) MKL-1 Replicate 1 [2] | Area under the dose-response curve (AUC) MKL-1 Replicate 2 [2] | Area under the dose-response curve (AUC) MKL-1 Replicate 3 [2] | Area under the dose-response curve (AUC) MCC26 Replicate 1 [3] | Area under the dose-response curve (AUC) MCC26 Replicate 2 [3] | Area under the dose-response curve (AUC) MCC26 Replicate 3 [3] | Area under the dose-response curve (AUC) WAGA Replicate 1 [4] | Area under the dose-response curve (AUC) WAGA Replicate 2 [4] | Area under the dose-response curve (AUC) WAGA Replicate 3 [4] | Area under the dose-response curve (AUC) MCC13 Replicate 1 [5] | Area under the dose-response curve (AUC) MCC13 Replicate 2 [5] | Area under the dose-response curve (AUC) MCC13 Replicate 3 [5] | Area under the dose-response curve (AUC) MKL-2 Replicate 1 [6] | Area under the dose-response curve (AUC) MKL-2 Replicate 2 [6] | Area under the dose-response curve (AUC) MKL-2 Replicate 3 [6] | also measured
1 | CCCNC(=O)[C@H]1O[C@@H]1C(=O)N[C@H](C(=O)N1CCC[C@H]1C(=O)OC)C(C)CC (stereo partly drawn) [CA-074 Me] | 368.5 | 355.5 | 334.3 | 343.4 | 329.7 | 317.3 | 401.2 | 420.5 | 371.8 | 383.1 | 375.3 | 378.5 | 449.3 | 470.8 | 430.6 | 305.9 | 306.4 | 348.6 | 
2 | Cc1ccc(NC(=O)c2cccc(N(C)C)c2)cc1NC(=O)c1ccc(O)cc1 [ZM-336372] |  |  |  |  |  |  |  |  |  |  |  |  |  |  |  |  |  |  | Area under the dose-response curve (AUC) UISO Replicate 1 ([1]; follow-up screen, UISO, replicate 1): 448.6; Area under the dose-response curve (AUC) UISO Replicate 2 ([1]; follow-up screen, UISO, replicate 2): 464.6; Area under the dose-response curve (AUC) UISO Replicate 3 ([1]; follow-up screen, UISO, replicate 3): 456.5; Area under the dose-response curve (AUC) MKL-1 Replicate 1 ([2]; follow-up screen, MKL-1, replicate 1): 480.0; Area under the dose-response curve (AUC) MKL-1 Replicate 2 ([2]; follow-up screen, MKL-1, replicate 2): 490.6; Area under the dose-response curve (AUC) MKL-1 Replicate 3 ([2]; follow-up screen, MKL-1, replicate 3): 522.7; Area under the dose-response curve (AUC) MCC26 Replicate 1 ([3]; follow-up screen, MCC26, replicate 1): 438.1; Area under the dose-response curve (AUC) MCC26 Replicate 2 ([3]; follow-up screen, MCC26, replicate 2): 425.8; Area under the dose-response curve (AUC) MCC26 Replicate 3 ([3]; follow-up screen, MCC26, replicate 3): 478.4; Area under the dose-response curve (AUC) WAGA Replicate 1 ([4]; follow-up screen, WAGA, replicate 1): 500.4; Area under the dose-response curve (AUC) WAGA Replicate 2 ([4]; follow-up screen, WAGA, replicate 2): 604.1; Area under the dose-response curve (AUC) WAGA Replicate 3 ([4]; follow-up screen, WAGA, replicate 3): 537.5; Area under the dose-response curve (AUC) MCC13 Replicate 1 ([5]; follow-up screen, MCC13, replicate 1): 498.2; Area under the dose-response curve (AUC) MCC13 Replicate 2 ([5]; follow-up screen, MCC13, replicate 2): 493.5; Area under the dose-response curve (AUC) MCC13 Replicate 3 ([5]; follow-up screen, MCC13, replicate 3): 506.1; Area under the dose-response curve (AUC) MKL-2 Replicate 1 ([6]; follow-up screen, MKL-2, replicate 1): 501.8; Area under the dose-response curve (AUC) MKL-2 Replicate 2 ([6]; follow-up screen, MKL-2, replicate 2): 535.1; Area under the dose-response curve (AUC) MKL-2 Replicate 3 ([6]; follow-up screen, MKL-2, replicate 3): 493.2
3 | C[C@]12CCC(=NOCCN)C[C@@H]1C(=O)C[C@@H]1[C@@H]2CC[C@]2(C)C(=O)CC[C@@H]12 [PST-2744 (Istaroxime)] |  |  |  |  |  |  |  |  |  |  |  |  |  |  |  |  |  |  | Area under the dose-response curve (AUC) [1]: 410.4 and 435.6 and 412.5; Area under the dose-response curve (AUC) [2]: 437.3 and 438.4 and 450.7; Area under the dose-response curve (AUC) [3]: 394.3 and 428.5 and 414.9; Area under the dose-response curve (AUC) [4]: 454.8 and 457.0 and 435.6; Area under the dose-response curve (AUC) [5]: 404.5 and 430.7 and 432.5; Area under the dose-response curve (AUC) [6]: 441.0 and 431.1 and 445.6
4 | CC(=O)C1=C(O)[C@@H]2[C@H]3c4c[nH]c5cccc(c45)C[C@H]3C(C)(C)N2C1=O [Cyclopiazonic acid] | 472.8 | 458.0 | 445.8 | 549.5 | 470.8 | 482.5 | 467.3 | 434.2 | 474.3 | 561.2 | 524.5 | 501.8 | 495.4 | 488.6 | 449.6 | 490.7 | 497.0 | 473.0 | 
5 | C[n+]1cc2c3c(ccc2c2ccc4cc5c(cc4c21)OCO5)OCO3 [Sanguinarine] | 370.0 | 363.9 | 365.4 | 358.8 | 334.5 | 363.7 | 339.9 | 348.4 | 364.0 | 371.2 | 384.9 | 367.1 | 361.4 | 359.5 | 378.6 | 328.8 | 346.3 | 358.6 | 
